Data set [1] is described as follows: Compound solubility in water. The data set is classed as physicochemical.
The next data set has as its target T1, acid ceramidase (hACR) (Homo sapiens, UniProt Q13510).
T1 construct: expressed in transfected cells
T1 sequence (Q13510 22-395): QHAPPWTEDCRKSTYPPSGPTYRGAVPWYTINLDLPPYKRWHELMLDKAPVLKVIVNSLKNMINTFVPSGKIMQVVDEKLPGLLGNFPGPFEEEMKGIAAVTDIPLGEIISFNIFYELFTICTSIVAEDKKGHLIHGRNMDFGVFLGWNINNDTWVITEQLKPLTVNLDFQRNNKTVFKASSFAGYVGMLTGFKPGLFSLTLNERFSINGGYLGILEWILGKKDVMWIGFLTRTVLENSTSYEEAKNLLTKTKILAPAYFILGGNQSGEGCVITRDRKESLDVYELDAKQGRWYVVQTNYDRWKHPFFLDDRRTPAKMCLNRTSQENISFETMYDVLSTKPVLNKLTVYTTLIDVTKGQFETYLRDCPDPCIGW
Briefly: Acid ceramidase inhibition, biochemical fluorescent assay with cell lysates overexpressing acid ceramidase (substrate Rbm14-12). As to conditions: cell lysate, 1 hr preincubation at RT, pH 4.5, Rbm14-12 6.3 μM; read-out: IC50 hACR. How it is done: The ability of exemplary compounds to inhibit acid ceramidase was measured.
Cell lysates overexpressing acid ceramidase were used as the enzyme source for compound potency determination in a biochemical fluorescent assay. Briefly, compounds were preincubated with 10 μg protein of cell lysates in a dose-response manner for 1 hr at RT in the assay buffer containing 25 mM NaAC and 100 mM NaCl, pH 4.5. […] The samples were incubated with the stopping buffer at RT for 1 hr to allow the fluorescent product to be formed. […] Data were collected and used to determine the IC50 values of compounds by curve fitting to the four-parameter inhibition equation.

In brackets after ≈: the same amount, converted by molar mass.

In data set [1], `O=C(NCCc1ccccc1)n1cnc(-c2ccccc2)c1` [Example 2, N-Phenethyl-4-phenyl-1H-imidazole-1-carboxamide] came in with a solubility of 0.2 µg/mL (≈ 0.686 µM). Besides, the IC50 on acid ceramidase (hACR) was less than 200 nM. Consider `CC(C)(C)c1cn(C(=O)NCCc2ccccc2)cn1` [Example 3, 4-tert-Butyl-N-phenethyl-1H-imidazole-1-carboxamide], for which the concentration in solution in data set [1] (solubility) came to 5.2 µg/mL (≈ 19.2 µM). In addition, the IC50 on acid ceramidase (hACR) was less than 200 nM. With `O=C(NCCc1ccccc1)n1cnc(-c2ccccn2)c1` [Example 4, N-Phenethyl-4-(pyridin-2-yl)-1H-imidazole-1-carboxamide], the concentration in solution in data set [1] (solubility) came to 21.1 µg/mL (≈ 72.2 µM). In addition, the half-inhibitory concentration (IC50) at acid ceramidase (hACR) was in the range of 200 to 1000 nM. `O=C(NCCc1ccccc1)n1cnc(-c2cccnc2)c1` [Example 5] gave a solubility in data set [1] of 16.2 µg/mL (≈ 55.4 µM). Further, the 50% inhibitory concentration (IC50) at acid ceramidase (hACR) is 200 to 1000 nM. In data set [1], `O=C(NCCc1ccccc1)n1cnc(-c2ccncc2)c1` [Example 6, N-Phenethyl-4-(pyridin-4-yl)-1H-imidazole-1-carboxamide] yielded a solubility of 23.9 µg/mL (≈ 81.8 µM). Besides, the half-maximal inhibitory concentration (IC50) at acid ceramidase (hACR) was more than 1000 nM. In data set [1], `Cc1nc(-c2ccccc2)cn1C(=O)NCCc1ccccc1` [Example 7, 2-Methyl-N-phenethyl-4-phenyl-1H-imidazole-1-carboxamide] showed a solubility of 1.1 µg/mL (≈ 3.6 µM). Also, the IC50 at acid ceramidase (hACR) is less than 200 nM. In data set [1], `COc1nc(-c2ccccc2)cn1C(=O)NCCc1ccccc1` [Example 8, 2-Methoxy-N-phenethyl-4-phenyl-1H-imidazole-1-carboxamide] returned a solubility of 0.1 µg/mL (≈ 0.311 µM). Moreover, on acid ceramidase (hACR), the IC50 is 200 to 1000 nM. `O=C(NCCCc1ccccc1)n1cnc(-c2ccccc2)c1` [Example 9] displayed a solubility in data set [1] of 1.3 µg/mL (≈ 4.26 µM). The IC50 on acid ceramidase (hACR) was less than 200 nM. In turn, `COc1nc(C(C)(C)C)cn1C(=O)NCCc1ccccc1` [Example 11, 4-tert-Butyl-2-methoxy-N-phenethyl-1H-imidazole-1-carboxamide] displayed a solubility in data set [1] of 15.1 µg/mL (≈ 50.1 µM). Further, the concentration for half-maximal inhibition (IC50) on acid ceramidase (hACR) is 200 to 1000 nM. `COc1nc(-c2ccccc2)cn1C(=O)NCCCc1ccccc1` [Example 12, 2-Methoxy-4-phenyl-N-(3-phenylpropyl)-1H-imidazole-1-carboxamide] returned a solubility in data set [1] of 1 µg/mL (≈ 2.98 µM). Further, at acid ceramidase (hACR), the IC50 is 200 to 1000 nM. On the same counts, the results for `CC(C)(CNC(=O)n1cnc(-c2cccnc2)c1)c1ccccc1` [Example 13, N-(2-Methyl-2-phenylpropyl)-4-(pyridin-3-yl)-1H-imidazole-1-carboxamide] are 1.9 µg/mL (≈ 5.93 µM) and less than 200 nM. Turning to `O=C(NCCCc1ccccc1)n1cnc(-c2cccnc2)c1` [Example 14, N-(3-Phenylpropyl)-4-(pyridin-3-yl)-1H-imidazole-1-carboxamide], in data set [1], the solubility came out at 14.3 µg/mL (≈ 46.7 µM). Also, the IC50 at acid ceramidase (hACR) is less than 200 nM. On the same counts, the results for `CC(CNC(=O)n1cnc(-c2cccnc2)c1)Cc1ccccc1` (centres unmarked) [Example 15, N-(2-Methyl-3-phenylpropyl)-4-(pyridin-3-yl)-1H-imidazole-1-carboxamide] are 16.1 µg/mL (≈ 50.3 µM) and less than 200 nM. For `CC(CCNC(=O)n1cnc(-c2cccnc2)c1)c1ccccc1` (centres unmarked) [Example 16, N-(3-Phenylbutyl)-4-(pyridin-3-yl)-1H-imidazole-1-carboxamide], in that order: 3.8 µg/mL (≈ 11.9 µM) and less than 200 nM.

The compound `O=C(NCCOc1ccccc1)n1cnc(-c2cccnc2)c1` [Example 17, N-(2-Phenoxyethyl)-4-(pyridin-3-yl)-1H-imidazole-1-carboxamide] came in with a solubility in data set [1] of 2.6 µg/mL (≈ 8.43 µM). Also, the IC50 at acid ceramidase (hACR) is less than 200 nM. For `O=C(NCCOc1ccccc1)n1cnc(-c2ccccc2)c1` [Example 18, N-(2-Phenoxyethyl)-4-phenyl-1H-imidazole-1-carboxamide], in that order: 0.06 µg/mL (≈ 0.195 µM) and less than 200 nM. Compound `CC(C)(C)c1cn(C(=O)NCCOc2ccccc2)cn1` [Example 19, 4-tert-Butyl-N-(2-phenoxyethyl)-1H-imidazole-1-carboxamide] displayed a solubility in data set [1] of 0.8 µg/mL (≈ 2.78 µM). Further, the IC50 at acid ceramidase (hACR) is less than 200 nM. For `CC(C)(C)c1cn(C(=O)NCCc2cccnc2)cn1` [Example 20, 4-tert-Butyl-N-(2-(pyridin-3-yl)ethyl)-1H-imidazole-1-carboxamide], in that order: 0.2 µg/mL (≈ 0.734 µM) and 200 to 1000 nM. Take `CC(C)CCNC(=O)n1cnc(-c2cccnc2)c1` [Example 21, N-iso-Pentyl-4-(pyridin-3-yl)-1H-imidazole-1-carboxamide]: in data set [1], the solubility amounted to 21.5 µg/mL (≈ 83.2 µM). In addition, the IC50 at acid ceramidase (hACR) lay within 200 to 1000 nM. Consider `O=C(NCCC1CC1)n1cnc(-c2cccnc2)c1` [Example 22, N-(2-Cyclopropylethyl)-4-(pyridin-3-yl)-1H-imidazole-1-carboxamide], for which the solubility in data set [1] turned out to be 23 µg/mL (≈ 89.7 µM). The IC50 at acid ceramidase (hACR) lay in the range of 200 to 1000 nM.

The compound `O=C(NCCC1(C(F)(F)F)CC1)n1cnc(-c2cccnc2)c1` [Example 23, 4-(Pyridin-3-yl)-N-(2-(1-(trifluoromethyl)cyclopropyl)ethyl)-1H-imidazole-1-carboxamide] registered a solubility in data set [1] of 23.7 µg/mL (≈ 73.1 µM). In addition, the concentration for half-maximal inhibition (IC50) at acid ceramidase (hACR) is 200 to 1000 nM. For `CC(C)OCCNC(=O)n1cnc(-c2cccnc2)c1` [Example 24, N-(2-iso-Propoxyethyl)-4-(pyridin-3-yl)-1H-imidazole-1-carboxamide], in that order: 12.6 µg/mL (≈ 45.9 µM) and more than 1000 nM.

The compound `O=C(NCCC1(C(F)(F)F)CC1)n1cnc(-c2ccccc2)c1` [Example 25, 4-Phenyl-N-(2-(1-(trifluoromethyl)cyclopropyl)ethyl)-1H-imidazole-1-carboxamide] yielded a solubility in data set [1] of 0.8 µg/mL (≈ 2.47 µM). In addition, the IC50 on acid ceramidase (hACR) is less than 200 nM. `O=C(NCCC1CC1)n1cnc(-c2ccccc2)c1` [Example 26, N-(2-Cyclopropylethyl)-4-phenyl-1H-imidazole-1-carboxamide] displayed a solubility in data set [1] of 1.9 µg/mL (≈ 7.44 µM). At acid ceramidase (hACR), the half-maximal inhibitory concentration (IC50) was in the range of 200 to 1000 nM.

Compound `CC(C)CCNC(=O)n1cnc(-c2ccccc2)c1` [Example 27, N-iso-Pentyl-4-phenyl-1H-imidazole-1-carboxamide] displayed a solubility in data set [1] of 3.1 µg/mL (≈ 12 µM). At acid ceramidase (hACR), the 50% inhibitory concentration (IC50) is less than 200 nM. `N#Cc1ccc(-c2cn(C(=O)NCCc3ccccc3)cn2)cn1` [Example 28, 4-(6-Cyanopyridin-3-yl)-N-phenethyl-1H-imidazole-1-carboxamide] yielded a solubility in data set [1] of 5 µg/mL (≈ 15.8 µM). Also, at acid ceramidase (hACR), the IC50 is less than 200 nM. In the case of `Cc1ccc(-c2cn(C(=O)NCCc3ccccc3)cn2)cn1` [Example 29, 4-(6-Methylpyridin-3-yl)-N-phenethyl-1H-imidazole-1-carboxamide], the concentration in solution in data set [1] (solubility) was 3 µg/mL (≈ 9.79 µM). For the same compound, the IC50 at acid ceramidase (hACR) is less than 200 nM. On the same counts, the results for `O=C(NCCc1ccccc1)n1cnc(-c2ccc(F)nc2)c1` [Example 30, 4-(6-Fluoropyridin-3-yl)-N-phenethyl-1N-imidazole-1-carboxamide] are 3.4 µg/mL (≈ 11 µM) and less than 200 nM.

For the compound `COc1ccc(-c2cn(C(=O)NCCc3ccccc3)cn2)cn1` [Example 31, 4-(6-Methoxypyridin-3-yi)-N-phenethyl-1H-imidazole-1-carboxamide], the solubility in data set [1] came to 25.1 µg/mL (≈ 77.9 µM). Moreover, at acid ceramidase (hACR), the half-maximal inhibitory concentration (IC50) was less than 200 nM. `O=C(NCCCC1CC1)n1cnc(-c2cccnc2)c1` [Example 32, N-(3-Cyclopropylpropyl)-4-(pyridin-3-yl)-1H-imidazole-1-carboxamide] showed a solubility in data set [1] of 27.6 µg/mL (≈ 102 µM). Besides, on acid ceramidase (hACR), the IC50 was in the range of 200 to 1000 nM. In turn, `CC(C)CCCNC(=O)n1cnc(-c2cccnc2)c1` [Example 33] registered a solubility in data set [1] of 18.9 µg/mL (≈ 69.4 µM). Moreover, the half-inhibitory concentration (IC50) on acid ceramidase (hACR) was 200 to 1000 nM. With `CN(C)Cc1ccc(-c2cn(C(=O)NCCc3ccccc3)cn2)cc1` [Example 34, 4-(4-((Dimethylamino)methyl)phenyl)-N-phenethyl-1H-imidazole-1-carboxamide], the solubility in data set [1] came to 25.6 µg/mL (≈ 73.5 µM). Moreover, the IC50 on acid ceramidase (hACR) was less than 200 nM.

In data set [1], `CC(C)CNC(=O)n1cnc(-c2cccnc2)c1` [Example 35, N-iso-Butyl-4-(pyridin-3-yl)-1H-imidazole-1-carboxamide] returned a solubility of 19.1 µg/mL (≈ 78.2 µM). Moreover, the half-inhibitory concentration (IC50) on acid ceramidase (hACR) was more than 1000 nM. The compound `COc1ccc(-c2cn(C(=O)NCCC(C)C)cn2)cn1` [Example 36, N-iso-Pentyl-4-(6-methoxypyridin-3-yl)-1H-imidazole-1-carboxamide] came in with a solubility in data set [1] of 2.9 µg/mL (≈ 10.1 µM). The IC50 at acid ceramidase (hACR) was 200 to 1000 nM. Take `Cc1ccc(-c2cn(C(=O)NCCC(C)C)cn2)cn1` [Example 37, N-iso-Pentyl-4-(6-methylpyridin-3-yl)-1H-imidazole-1-carboxamide]: in data set [1], the solubility turned out to be 7.3 µg/mL (≈ 26.8 µM). Further, the IC50 at acid ceramidase (hACR) was more than 1000 nM.

In data set [1], `CC(C)CCNC(=O)n1cnc(-c2ccccc2C2CCN(C)CC2)c1` [Example 38, N-iso-Pentyl-4-(2-(1-methylpiperidin-4-yl)phenyl)-1H-imidazole-1-carboxamide] showed a solubility of 35.3 µg/mL (≈ 99.6 µM). On acid ceramidase (hACR), the IC50 was 200 to 1000 nM. Take `CN1CCN(c2ncccc2-c2cn(C(=O)NCCCC3(C(F)(F)F)CC3)cn2)CC1` [Example 176, 4-(2-(4-Methylpiperazin-1-yl)pyridin-3-yl)-N-(3-(1-(trifluoromethyl)cyclopropyl)propyl)-1H-imidazole-1-carboxamide]: the concentration in solution in data set [1] (solubility) was 29 µg/mL (≈ 66.4 µM).

`COc1nc(Cl)cn1C(=O)NCC#CC(C)C` [Example 186, 4-Chloro-2-methoxy-N-(4-methylpent-2-yn-1-yl)-1H-imidazole-1-carboxamide]: the 50% inhibitory concentration (IC50) on acid ceramidase (hACR) was 200 to 1000 nM.

As a reminder, the solubility is how much of the substance goes into solution per volume. The low end stands for little dissolved substance, the high end for much dissolved substance. Usually IC50 stands for the concentration needed to halve the response being measured.

(Values after patent US20220411388A1, “SUBSTITUTED IMIDAZOLE CARBOXAMIDES AND THEIR USE IN THE TREATMENT OF MEDICAL DISORDERS” (Bial - R&D Investments, S.A., priority 2019, published 2022).)
